US6777412B2 (priority 1990, dated 2004)
Where two headings read alike, the source gives them in different places. Marks after values point to notes of the source that are not given here.

Columns and labels:
Type in all cases: in vivo
Plasmopara viticola = test: Foliar fungal disease test on plants: Plasmopara viticola (Pv)
Protocol: (§1) The compounds were tested against a variety of foliar fungal diseases of plants. The technique employed was as follows.
(§2) The plants were grown in John Innes Potting Compost (No.1 or 2) in 4 cm diameter minipots. The test compounds were formulated either by bead milling with aqueous Dispersol T or as a solution in acetone or acetone/ethanol which was diluted to the required concentration immediately before use. For the foliage diseases, the formulations (100 ppm active ingredient except where otherwise indicated) were sprayed onto the foliage and applied to the roots of the plants in the soil. The sprays were applied to maximum retention and the root drenches to a final concentration equivalent to approximately 40 ppm a.i. in dry soil. Tween 20, to give a final concentration of 0.05%, was added when the sprays were applied to cereals.
(§3) For most of the tests the compound was applied to the soil (roots) and to the foliage (by spraying) one or two days before the plant was inoculated with the disease. An exception was the test on Erysiphe graminis in which the plants were inoculated 24 hours before treatment. Foliar pathogens were applied by spray as spore suspensions onto the leaves of test plants. After inoculation, the plants were put into an appropriate environment to allow infection to proceed and then incubated until the disease was ready for assessment. The period between inoculation and assessment varied from four to fourteen days according to the disease and environment.
(§4) The disease control vas recorded by the following grading:
(§5) 3=trace-5% of disease on untreated plants
(§6) 2=6-25% of disease on untreated plants
(§7) 1=26-59% of disease on untreated plants
(§8) 0=60-100% of disease on untreated plants

Pyricularia oryzae = system: Pyricularia oryzae
Venturia inaequalis = test: Foliar fungal disease test on plants: Venturia inaequalis (Vi)
Protocol: as §1, §2, §3, §4, §5, §6, §7, §8

Puccinia recondita = test: Foliar fungal disease test on plants: Puccinia recondita (Pr)
Protocol: as §1, §2, §3, §4, §5, §6, §7, §8

[1] = system: Phytophthora infestans lycopersici
Septoria nodorum = test: Foliar fungal disease test on plants: Septoria nodorum (Sn)
Protocol: as §1, §2, §3, §4, §5, §6, §7, §8

[2] = system: Erysiphe graminis tritici; test: Foliar fungal disease test on plants: Erysiphe graminis tritici (Egt)
Protocol: as §1, §2, §3, §4, §5, §6, §7, §8
Egt Erysiphe graminis tritici

[3] = 100 ppm active ingredient foliar spray plus root drench (approx. 40 ppm a.i. in dry soil), one or two days before inoculation
[4] = 100 ppm active ingredient foliar spray plus root drench (approx. 40 ppm a.i. in dry soil), plants inoculated 24 hours before treatment

Structure (SMILES)	disease control grading, Pv (Plasmopara viticola) (Plasmopara viticola; [3])	disease control grading, Po (Pyricularia oryzae) (Pyricularia oryzae; [3])	disease control grading, Vi (Venturia inaegualis) (Venturia inaequalis; [3])	disease control grading, Pr (Puccinia recondita) (Puccinia recondita; [3])	disease control grading, Pil (Phytophthora infestans lycopersici) [1, 3]	disease control grading, Sn (Septoria nodorum) (Septoria nodorum; [3])	disease control grading, Egt (Erysiphe graminis tritici) [2, 4]	disease control grading, Pv (Plasmopara viticola) (Plasmopara viticola; 10 ppm foliar application only)	disease control grading, Po (Pyricularia oryzae) (Pyricularia oryzae; 10 ppm foliar application only)	disease control grading, Vi (Venturia inaegualis) (Venturia inaequalis; 10 ppm foliar application only)	disease control grading, Pr (Puccinia recondita) (Puccinia recondita; 10 ppm foliar application only)	disease control grading, Pil (Phytophthora infestans lycopersici) ([1]; 10 ppm foliar application only)	disease control grading, Sn (Septoria nodorum) (Septoria nodorum; 10 ppm foliar application only)	disease control grading, Egt (Erysiphe graminis tritici) ([2]; 10 ppm foliar application only)	disease control grading, Pr (Puccinia recondita) (Puccinia recondita; 100 ppm foliar application only)
CO/C=C(/C(=O)OC)c1ccccc1Oc1cc(Cc2ccccc2)ncn1 [9 of Table I]	4 (4=no disease)	4 (4=no disease)	4 (4=no disease)	0 (0=60-100% of disease on untreated plants)	4 (4=no disease)	4 (4=no disease)	4 (4=no disease)								
CO/C=C(/C(=O)OC)c1ccccc1Oc1cc(OCc2ccccn2)ncn1 [222 of Table I]	4 (4=no disease)	4 (4=no disease)	4 (4=no disease)	4 (4=no disease)	0 (0=60-100% of disease on untreated plants)	3 (3=trace-5% of disease on untreated plants)	4 (4=no disease)								
CO/C=C(/C(=O)OC)c1ccccc1Oc1cc(OCc2cccnc2)ncn1 [229 of Table I]	4 (4=no disease)	4 (4=no disease)	4 (4=no disease)	4 (4=no disease)	3 (3=trace-5% of disease on untreated plants)	4 (4=no disease)	4 (4=no disease)								
CO/C=C(/C(=O)OC)c1ccccc1Oc1cc(OCc2ccncc2)ncn1 [236 of Table I]	4 (4=no disease)	2 (2=6-25% of disease on untreated plants)	4 (4=no disease)	4 (4=no disease)	4 (4=no disease)	3 (3=trace-5% of disease on untreated plants)	3 (3=trace-5% of disease on untreated plants)								
CO/C=C(/C(=O)OC)c1ccccc1Oc1cc(OCc2cccnn2)ncn1 [271 of Table I]	0 (0=60-100% of disease on untreated plants)	2 (2=6-25% of disease on untreated plants)	0 (0=60-100% of disease on untreated plants)	4 (4=no disease)	2 (2=6-25% of disease on untreated plants)	2 (2=6-25% of disease on untreated plants)	3 (3=trace-5% of disease on untreated plants)								
CO/C=C(/C(=O)OC)c1ccccc1Oc1cc(OCCOc2c(F)cccc2C#N)ncn1 [397 of Table I]	4 (4=no disease)	4 (4=no disease)	4 (4=no disease)	4 (4=no disease)	3 (3=trace-5% of disease on untreated plants)	3 (3=trace-5% of disease on untreated plants)	4 (4=no disease)								
CO/C=C(/C(=O)OC)c1ccccc1Oc1cc(-c2sc(-c3ccccc3O)nc2C)ncn1 [399 of Table I]								4^a (4=no disease)	0^a (0=60-100% of disease on untreated plants)	3^a (3=trace-5% of disease on untreated plants)	0^a (0=60-100% of disease on untreated plants)	0^a (0=60-100% of disease on untreated plants)	0^a (0=60-100% of disease on untreated plants)	0^a (0=60-100% of disease on untreated plants)	
CO/C=C(/C(=O)OC)c1ccccc1Oc1cc(-c2c(N)oc3ccccc23)ncn1 [400 of Table I]	4 (4=no disease)	0 (0=60-100% of disease on untreated plants)	4 (4=no disease)	4 (4=no disease)	4 (4=no disease)	4 (4=no disease)	4 (4=no disease)								
CCOc1ccccc1Nc1cc(Oc2ccccc2/C(=C\OC)C(=O)OC)ncn1 [401 of Table I]	4 (4=no disease)	0 (0=60-100% of disease on untreated plants)	4 (4=no disease)	4 (4=no disease)	3 (3=trace-5% of disease on untreated plants)	4 (4=no disease)	4 (4=no disease)								
CCCCOc1ccccc1Nc1cc(Oc2ccccc2/C(=C\OC)C(=O)OC)ncn1 [402 of Table I]	4 (4=no disease)	0 (0=60-100% of disease on untreated plants)	4 (4=no disease)	4 (4=no disease)	3 (3=trace-5% of disease on untreated plants)	4 (4=no disease)	4 (4=no disease)								
CO/C=C(/C(=O)OC)c1ccccc1Oc1cc(O/N=C(\C)c2ccccc2)ncn1 [403 of Table I]								4^a (4=no disease)	0^a (0=60-100% of disease on untreated plants)	4^a (4=no disease)		1^a (1=26-59% of disease on untreated plants)	0^a (0=60-100% of disease on untreated plants)	0^a (0=60-100% of disease on untreated plants)	4^b (4=no disease)
CO/C=C(/C(=O)OC)c1ccccc1Oc1cc(O/N=C(\C)c2cnccn2)ncn1 [404 of Table I]	4 (4=no disease)	3 (3=trace-5% of disease on untreated plants)	4 (4=no disease)	4 (4=no disease)	1 (1=26-59% of disease on untreated plants)	3 (3=trace-5% of disease on untreated plants)	4 (4=no disease)								
CO/C=C(/C(=O)OC)c1ccccc1Oc1cc(OCc2ccc(F)cc2)ncn1 [405 of Table I]	4 (4=no disease)	4 (4=no disease)	4 (4=no disease)	4 (4=no disease)	4 (4=no disease)	0 (0=60-100% of disease on untreated plants)	4 (4=no disease)								
